Source: patent US20100063085A1, “METHOD OF TREATING LEARNING IMPAIRMENT IN DOWN'S SYNDROME SUBJECTS” (University Court of The University of Dundee, priority 2008, published 2010)
Read-outs that look alike come from different tables or passages of the source.

Tests used:
Test in all cases: biochemical
[1] = biological target: T1, EFK2 (Homo sapiens, UniProt O00418); conditions: read-out: EFK2 activity as percentage of control without inhibitor
T1 sequence (O00418 1-725): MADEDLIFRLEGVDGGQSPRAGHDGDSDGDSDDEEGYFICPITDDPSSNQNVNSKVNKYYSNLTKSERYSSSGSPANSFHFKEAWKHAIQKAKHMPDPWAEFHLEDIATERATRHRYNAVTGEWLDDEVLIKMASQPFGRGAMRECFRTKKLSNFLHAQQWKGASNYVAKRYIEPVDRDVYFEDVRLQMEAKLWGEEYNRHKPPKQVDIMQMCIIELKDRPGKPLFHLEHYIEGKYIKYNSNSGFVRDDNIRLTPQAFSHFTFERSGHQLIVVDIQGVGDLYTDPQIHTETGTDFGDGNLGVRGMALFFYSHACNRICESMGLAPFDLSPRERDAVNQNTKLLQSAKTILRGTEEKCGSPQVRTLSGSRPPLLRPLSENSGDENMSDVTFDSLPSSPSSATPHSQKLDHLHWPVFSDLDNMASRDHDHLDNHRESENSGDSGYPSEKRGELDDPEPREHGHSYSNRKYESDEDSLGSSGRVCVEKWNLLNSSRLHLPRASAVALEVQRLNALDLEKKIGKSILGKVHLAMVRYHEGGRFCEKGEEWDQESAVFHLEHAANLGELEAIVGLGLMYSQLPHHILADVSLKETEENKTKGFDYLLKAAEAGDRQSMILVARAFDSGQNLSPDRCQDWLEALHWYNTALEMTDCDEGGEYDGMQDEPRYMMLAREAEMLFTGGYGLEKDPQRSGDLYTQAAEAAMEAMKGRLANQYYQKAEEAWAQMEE
Experimental: (§1) All assays (25.5 μl) were carried out at room temperature (21° C.) and were linear with respect to time and enzyme concentrations under the conditions used. Assays were performed for 30 minutes except assays for LCK and PKB which were performed for 15 minutes using Multidrop Micro reagent dispensers (Thermo Electron Corporation, Waltham, Mass. 02454, USA) in a 96-well format. The concentration of […] [γ-^33P] ATP (800 cpm/pmol) in the assays was one of three concentrations (5, 20 or 50 μM) in order to be at or below Km for ATP for the enzyme. Assays were initiated with MgATP and stopped by addition of 5 μl of 0.5M orthophosphoric acid. Assays were then harvested onto P81 filterplates using a unifilter harvester (PerkinElmer, Boston, Mass. 02118, USA), with a wash buffer of 50 mM orthophosphoric acid. Filterplates were then air dried overnight. 10 μl of Microscint O was added per well prior to counting for radioactivity.
(§2) The following kinases were assayed against the substrates indicated. Aurora B was assayed against the substrate peptide […] (300 μM), ERK8 and MST-2 were both assayed against MBP (0.33 mg/ml). IKKβ was assayed against the substrate peptide […] (300 μM), JNK3 was assayed against 3 μM ATF2[19-96]. MAPKAP-K3 and PKD1 were both assayed against […] (30 μM), MARK3 was assayed against CHKtide ([…]) substrate peptide (300 μM). MNK1 and MNK2 were both assayed against eIF4E protein (0.5 mg/ml). NEK7 was assayed against […] (300 μM), PIM2 was assayed against […] (300 μM), ΔPH PKBβ-S474D was assayed against Crosstide (30 μM), PLK1 was assayed against […] (300 μM). PRK2 was assayed against Long S6 peptide, […] (30 μM), RSK2 was assayed against […] (30 μM), SRC was assayed against cdc2 peptide, […], (300 μM) and SRPK1 was assayed against peptide […] (300 μM). All enzymes were diluted in 50 mM Tris/HCl pH 7.5, 0.1 mM EGTA, 1 mg/ml BSA, 0.1% β-mercaptoethanol buffer and assayed in an incubation containing 50 mM Tris/HCl pH7.5, 0.1 mM EGTA, 0.1% β-mercaptoethanol, CAMK-1 (5-20 mU) diluted in 50 mM Tris/HCl pH 7.5, 0.1 mM EGTA, 1 mg/ml BSA, 0.1% β-mercaptoethanol is assayed against substrate peptide […] in an incubation containing 50 mM Tris/HCl pH 7.5, 0.1 mM EGTA, 0.5 mM CaCl2, 0.3 μM calmodulin, 0.1% β-mereaptoethanol, 300 μM substrate peptide, 10 mM magnesium acetate and 0.05 mM [^33P-γ-ATP] (500-1000 cpm/pmole). EF2K (5-20 mU) diluted in 50 mM Hepes pH 6.6, 0.1% β-mercaptoethanol, 1 mg/ml BSA is assayed against a substrate peptide […] in an incubation containing 50 mM Hepes pH 6.6, 0.2 mM CaCl2, 0.3 μM Calmodulin, 0.05% b-mercaptoethanol, 300 μM substrate peptide, 10 mM magnesium acetate and 0.05 mM [^33P-γ-ATP] (500-1000 cpm/pmole).

[2] = biological target: MARK3 (Homo sapiens, UniProt P27448); conditions: read-out: MARK3 activity as percentage of control without inhibitor
Chain of MARK3 (P27448 whole entry, species assumed): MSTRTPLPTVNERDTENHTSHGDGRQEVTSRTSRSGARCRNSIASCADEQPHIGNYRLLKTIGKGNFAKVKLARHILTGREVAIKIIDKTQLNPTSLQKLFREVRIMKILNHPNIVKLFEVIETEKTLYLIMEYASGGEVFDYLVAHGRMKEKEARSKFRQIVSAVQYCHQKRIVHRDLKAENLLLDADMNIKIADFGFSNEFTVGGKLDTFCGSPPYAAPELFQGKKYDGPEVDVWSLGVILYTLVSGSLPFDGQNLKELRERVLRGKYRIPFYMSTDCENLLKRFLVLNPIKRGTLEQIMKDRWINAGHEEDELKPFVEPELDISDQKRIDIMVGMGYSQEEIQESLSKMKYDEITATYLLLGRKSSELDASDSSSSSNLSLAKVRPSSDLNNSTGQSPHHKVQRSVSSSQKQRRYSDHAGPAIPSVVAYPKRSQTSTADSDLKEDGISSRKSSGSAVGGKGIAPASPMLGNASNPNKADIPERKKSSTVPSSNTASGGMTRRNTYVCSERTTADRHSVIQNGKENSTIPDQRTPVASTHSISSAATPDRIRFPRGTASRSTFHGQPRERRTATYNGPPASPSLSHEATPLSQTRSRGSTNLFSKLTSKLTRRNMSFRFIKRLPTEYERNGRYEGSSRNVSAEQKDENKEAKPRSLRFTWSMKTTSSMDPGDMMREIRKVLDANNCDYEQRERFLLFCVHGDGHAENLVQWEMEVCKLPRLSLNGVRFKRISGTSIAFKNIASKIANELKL
Experimental: as §1, §2

[3] = biological target: NEK7 (Homo sapiens, UniProt Q8TDX7); conditions: read-out: NEK7 activity as percentage of control without inhibitor
Chain of NEK7 (Q8TDX7 whole entry, species assumed): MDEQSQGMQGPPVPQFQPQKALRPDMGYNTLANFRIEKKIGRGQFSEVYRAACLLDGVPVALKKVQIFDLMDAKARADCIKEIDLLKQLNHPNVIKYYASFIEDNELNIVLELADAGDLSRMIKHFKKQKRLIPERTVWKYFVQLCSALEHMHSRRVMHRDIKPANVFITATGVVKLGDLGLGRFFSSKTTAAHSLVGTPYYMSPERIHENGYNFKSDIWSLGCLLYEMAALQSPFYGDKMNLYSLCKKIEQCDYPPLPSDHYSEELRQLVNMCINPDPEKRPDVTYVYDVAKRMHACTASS
Experimental: as §1, §2

[4] = biological target: SRPK1 (Homo sapiens, UniProt Q96SB4); conditions: read-out: SRPK1 activity as percentage of control without inhibitor
Chain of SRPK1 (Q96SB4 whole entry, species assumed): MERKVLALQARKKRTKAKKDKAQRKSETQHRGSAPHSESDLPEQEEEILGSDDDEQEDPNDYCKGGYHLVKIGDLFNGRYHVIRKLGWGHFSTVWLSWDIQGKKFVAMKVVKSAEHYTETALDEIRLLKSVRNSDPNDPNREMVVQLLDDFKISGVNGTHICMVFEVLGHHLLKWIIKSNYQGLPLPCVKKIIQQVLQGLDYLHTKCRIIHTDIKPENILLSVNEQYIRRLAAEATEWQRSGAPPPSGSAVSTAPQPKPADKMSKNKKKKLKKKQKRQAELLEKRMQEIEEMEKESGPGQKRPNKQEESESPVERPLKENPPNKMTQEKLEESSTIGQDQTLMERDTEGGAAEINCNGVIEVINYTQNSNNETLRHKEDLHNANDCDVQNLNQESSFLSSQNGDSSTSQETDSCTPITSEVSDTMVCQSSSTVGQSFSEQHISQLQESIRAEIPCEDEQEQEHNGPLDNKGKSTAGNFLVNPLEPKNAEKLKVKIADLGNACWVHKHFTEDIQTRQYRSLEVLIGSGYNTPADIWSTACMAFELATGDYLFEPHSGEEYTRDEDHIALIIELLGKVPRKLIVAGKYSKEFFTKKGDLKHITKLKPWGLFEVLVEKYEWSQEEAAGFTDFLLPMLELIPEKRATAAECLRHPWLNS
Experimental: as §1, §2

Row | Compound | remaining activity at 1 µM ([1]; inhibitor 1 μM) [%] | remaining activity at 10 µM ([1]; inhibitor 10 μM) [%] | remaining activity at 1 µM ([2]; inhibitor 1 μM) [%] | remaining activity at 10 µM ([2]; inhibitor 10 μM) [%] | remaining activity at 1 µM ([3]; inhibitor 1 μM) [%] | remaining activity at 10 µM ([3]; inhibitor 10 μM) [%] | remaining activity at 1 µM ([4]; inhibitor 1 μM) [%] | remaining activity at 10 µM ([4]; inhibitor 10 μM) [%] | remaining activity at 1 µM [1] [%] | remaining activity at 10 µM [1] [%] | remaining activity at 1 µM [2] [%] | remaining activity at 10 µM [2] [%] | remaining activity at 1 µM [3] [%] | remaining activity at 10 µM [3] [%] | remaining activity at 1 µM [4] [%] | remaining activity at 10 µM [4] [%]
1 | COc1ccc2c3c([nH]c2c1)C(C)=NCC3 [Harmaline] | 106 | 100 | 99 | 103 | 95 | 115 | 104 | 97 | – | – | – | – | – | – | – | –
2 | CC1=NCCc2c1[nH]c1cc(O)ccc21 [Harmalol] | 97 | 85 | 93 | 84 | 83 | 56 | 88 | 72 | – | – | – | – | – | – | – | –
3 | COc1ccc2c(c1)[nH]c1c(C)nccc12 [Harmine] | – | – | – | – | – | – | – | – | 102 | 101 | 86 | 86 | 90 | 92 | 86 | 83
